For orientation: EC50 means the concentration at which the effect is half-maximal. Read a low EC50 as an effect from little substance.

The subject of the assay is SMN protein. Description: cellular SMN ELISA (SMN protein elevation). The assay is classed as cell-based. Particulars: myoblast cell line from SMNdelta7 mouse model, 24 hours treatment; for SMN activity Fold: fold activation over DMSO control. On the procedure: A cellular SMN ELISA was used to measure the effects of low molecular weight compounds on SMN protein elevation. Cells from a myoblast cell line derived from the SMNdelta7 mouse model (kind gift from Steve Burden, NYU) were seeded into a 384-well plate at a density of 3000 cells/well and treated with compounds for 24 hours. ELISA capture plates were prepared by coating 384-well plates (Immulon 4HBX) with 0.5 ug/mL of anti-SMN mAb (BD Science, Catalog number 610647) at 4° C. overnight. The plates were washed 5 times with 110 uL of PBS-Tween (0.05% Tween-20, PBST), blocked with 100 uL of 1% BSA in PBST for 2 hours and washed (5 times) with 100 uL of PBST. After 24 hours of compound treatment cells were lysed in a modified RIPA-buffer, on ice for 1 hour. 20 uL of lysate and 20 uL of 1% BSA were then added to the ELISA capture plates and incubated at 4° C. overnight. Plates were washed (5 times) with PBST and then incubated with 1:100 dilution of primary rabbit anti-SMN polyclonal antibody (Santa cruz, Catalog number SC-15320) at room temperature for 1 hour and subsequently washed (5 times) with 110 uL of PBST. This was followed by addition of 1:100 Goat anti-Rabbit IgG-HRP linked (Cell Signaling, Catalog number 7074) secondary antibody for 1 hour. Plates were then washed with PBST and incubated with 40 uL TMB substrate (Cell Signaling, Catalog number 7004L) at room temperature for 1-10 minutes with shaking. The reaction was stopped by addition of 40 uL of stop solution (Cell signaling, Catalog number 7002L) and absorption was measured at 450 nm. Data was reported as fold activation over DMSO control, and EC50.
ELISA assay condition 1: compound concentration range 20 nM-10 uM; ELISA assay condition 2: compound concentration 100 pM-10 uM.
On the technique in general: ELISA stands for enzyme-linked immunosorbent assay.

Where [1] appears, read: ELISA condition 2: compound concentration 100 pM-10 uM.
The mark [2] stands for this setting: ELISA condition 1: compound concentration range 20 nM-10 uM.

Regarding `COc1cccc(-c2cc(O)c(-c3ccc(N(C)C4CC(C)(C)NC(C)(C)C4)nn3)c(OC)c2)c1` [Example 26-5, 3′,5-Dimethoxy-4-(6-(methyl(2,2,6,6-tetramethylpiperidin-4-yl)amino)pyridazin-3-yl)-[1,1′-biphenyl]-3-ol], under setting [1], the midpoint of the response, the EC50, lay at 313 nM and the “SMN activity Fold” value was 2.14 Fold.

As for `CN(c1ccc(-c2cc3ccc(C#N)cc3cc2O)nn1)C1CC(C)(C)NC(C)(C)C1` [Example 24-1, 7-hydroxy-6-(6-(methyl(2,2,6,6-tetramethylpiperidin-4-yl)amino)pyridazin-3-yl)-2-naphthonitrile], under setting [1], a half-maximal response (EC50) required 16 nM and the “SMN activity Fold” value is reported as 3.14 Fold.

As for `CN(c1ccc(-c2cc(-n3cc(CO)cn3)ccc2O)nn1)C1CC(C)(C)NC(C)(C)C1` [Example 37-1, 4-(4-(hydroxymethyl)-1H-pyrazol-1-yl)-2-(6-(methyl(2,2,6,6-tetramethylpiperidin-4-yl)amino)pyridazin-3-yl)phenol], under setting [1], the EC50 came out at 118 nM and the “SMN activity Fold” value amounted to 2.59 Fold.

Turning to `CN(c1ccc(-c2cc3ccc(C(F)F)cc3cc2O)nn1)C1CC(C)(C)NC(C)(C)C1` [Example 24-10, 7-(difluoromethyl)-3-(6-(methyl(2,2,6,6-tetramethylpiperidin-4-yl)amino)pyridazin-3-yl)naphthalen-2-ol], under setting [1], the EC50 amounted to 113 nM and the “SMN activity Fold” value is listed as 3.14 Fold.

`CN(c1ccc(-c2ccc(-c3ccc(O)nc3)cc2O)nn1)C1CC(C)(C)NC(C)(C)C1` [Example 41-2]: under setting [1], the midpoint of the response, the EC50, lay at 50 nM and the “SMN activity Fold” value is recorded as 2.68 Fold.

Take `CN(c1ccc(-c2ccc(-c3ccnc(O)c3)cc2O)nn1)C1CC(C)(C)NC(C)(C)C1` [Example 41-3]: under setting [1], the EC50 worked out at 66 nM and the “SMN activity Fold” value was determined as 3.10 Fold.

Take `CN(c1ccc(-c2cc(C(=O)NCc3cnn(C)c3)ccc2O)nn1)C1CC(C)(C)NC(C)(C)C1` [Example 36-1, 4-hydroxy-3-(6-(methyl(2,2,6,6-tetramethylpiperidin-4-yl)amino)pyridazin-3-yl)-N-((1-methyl-1H-pyrazol-4-yl)methyl)benzamide]: under setting [1], the midpoint of the response, the EC50, lay at 652 nM and the “SMN activity Fold” value amounted to 2.04 Fold.

Take `Oc1cc2ccccc2cc1-c1ccc(C2=CCNCC2)nn1` [Example 19-3, 3-(6-(1,2,3,6-tetra-hydropyridin-4-yl)pyridazin-3-yl)naphthalen-2-ol]: under setting [1], the EC50 worked out at 155 nM and the “SMN activity Fold” value came out at 2.19 Fold.

For `CN(C)c1ccc(-c2ccc(-c3ccc(N(C)C4CC(C)(C)NC(C)(C)C4)nn3)c(O)c2)cn1` [Example 41-10, 5-(6-(dimethylamino)pyridin-3-yl)-2-(6-(methyl(2,2,6,6-tetramethylpiperidin-4-yl)amino)pyridazin-3-yl)phenol], under setting [1], the EC50 amounted to 59 nM and the “SMN activity Fold” value stood at 2.80 Fold.

As to `CN(c1ccc(-c2cc3c(cc2O)C(O)CC3)nn1)C1CC(C)(C)NC(C)(C)C1` (stereo not shown) [Example 35-4, 5-(6-(methyl(2,2,6,6-tetramethylpiperidin-4-yl)amino)pyridazin-3-yl)-2,3-dihydro-1H-indene-1,6-diol], under setting [1], a half-maximal effect (EC50) was put at 131 nM and the “SMN activity Fold” value stood at 2.11 Fold.

With `CN1C(C)(C)CC(Nc2ccc(-c3ccc(-n4cccn4)cc3O)nn2)CC1(C)C` [Example 18-14, 2-[6-(1,2,2,6,6-pentamethyl-piperidin-4-ylamino)-pyridazin-3-yl]-5-pyrazol-1-yl-phenol], under setting [2], a half-maximal response (EC50) required 17 nM and the “SMN activity Fold” value amounted to 2.62 Fold.

As for `CN(c1ccc(-c2cc(F)c(F)cc2O)nn1)C1CC(C)(C)NC(C)(C)C1` [Example 3-12, 4,5-difluoro-2-{6-[methyl-(2,2,6,6-tetramethyl-piperidin-4-yl)-amino]-pyridazin-3-yl}-phenol], under setting [2], a half-maximal response (EC50) required 129 nM and the “SMN activity Fold” value was found to be 2.70 Fold.

Regarding `CC1(C)CC(Oc2ccc(-c3cc4ccccc4cc3O)nn2)CC(C)(C)N1` [Example 3-6, 3-[6-(2,2,6,6-tetramethyl-piperidin-4-yloxy)-pyridazin-3-yl]-naphthalen-2-ol], under setting [1], the EC50 was 110 nM and the “SMN activity Fold” value worked out at 3.01 Fold.

`CC1(C)CN(c2ccc(-c3ccc(-n4cccn4)cc3O)nn2)CCN1` [Example 18-15, 2-[6-(3,3-dimethyl-piperazin-1-yl)-pyridazin-3-yl]-5-pyrazol-1-yl-phenol]: under setting [1], the response was half-maximal at 714 nM (EC50) and the “SMN activity Fold” value turned out to be 2.30 Fold.

As to `CC1(C)CC(Oc2ccc(-c3cc(-c4ccnc(O)c4)ccc3O)nn2)CC(C)(C)N1` [Example 32-9, 4-(4-hydroxy-3-(6-((2,2,6,6-tetramethylpiperidin-4-yl)oxy)pyridazin-3-yl)phenyl)pyridin-2-ol], under setting [1], the EC50 was 485 nM and the “SMN activity Fold” value is 2.90 Fold.

In the case of `COc1cc(-c2cnc3n2CCCC3)cc(O)c1-c1ccc(N(C)C2CC(C)(C)NC(C)(C)C2)nn1` [Example 26-2, 3-methoxy-2-(6-(methyl(2,2,6,6-tetramethylpiperidin-4-yl)amino)pyridazin-3-yl)-5-(5,6,7,8-tetrahydroimidazo[1,2-a]pyridin-3-yl)phenol], under setting [1], the EC50 turned out to be 97 nM and the “SMN activity Fold” value is on record as 2.61 Fold.

On to `CN(c1ccc(-c2c(O)cc(-c3ccn(C)c(=O)c3)cc2F)nn1)C1CC(C)(C)NC(C)(C)C1` [Example 40-3, 4-(3-fluoro-5-hydroxy-4-(6-(methyl(2,2,6,6-tetramethylpiperidin-4-yl)amino)pyridazin-3-yl)phenyl)-1-methylpyridin-2(1H)-one], for which, under setting [1], the EC50 came out at 11 nM and the “SMN activity Fold” value is given as 3.03 Fold.

As to `CN(c1ccc(-c2ccc(-n3cccn3)nc2)nn1)C1CC(C)(C)NC(C)(C)C1` [Example 1-19, methyl-[6-(6-pyrazol-1-yl-pyridin-3-yl)-pyridazin-3-yl]-(2,2,6,6-tetramethyl-piperidin-4-yl)-amine], under setting [2], it took 740 nM to reach a half-maximal effect (EC50) and the “SMN activity Fold” value is given as 3.10 Fold.

In the case of `COc1cc(O)c(-c2ccc(N(C)C3CC(C)(C)NC(C)(C)C3)nn2)cc1OC` [Example 3-10, 4,5-dimethoxy-2-{6-[methyl-(2,2,6,6-tetramethyl-piperidin-4-yl)-amino]-pyridazin-3-yl}-phenol], under setting [1], the EC50 came to 855 nM and the “SMN activity Fold” value amounted to 2.53 Fold.

With `CN1C(C)(C)CC(Nc2ccc(-c3cc4ccccc4s3)nn2)CC1(C)C` [Example 7-1, 6-(benzo[b]thiophen-2-yl)-N-(1,2,2,6,6-pentamethylpiperidin-4-yl)pyridazin-3-amine], under setting [2], the EC50 was 2730 nM and the “SMN activity Fold” value was 2.54 Fold.

As to `CC1(C)CC(Oc2ccc(-c3c(O)cc(-c4cn[nH]c4)cc3F)nn2)CC(C)(C)N1` [Example 40-5, 3-fluoro-5-(1H-pyrazol-4-yl)-2-(6-((2,2,6,6-tetramethylpiperidin-4-yl)oxy)pyridazin-3-yl)phenol], under setting [1], the half-maximal effective concentration (EC50) amounted to 17 nM and the “SMN activity Fold” value amounted to 3.59 Fold.

`CN(c1ccc(-c2ccc(-c3cnc4cnccn34)cc2O)nn1)C1CC(C)(C)NC(C)(C)C1` [Example 42-3, 5-(imidazo[1,2-a]pyrazin-3-yl)-2-(6-(methyl(2,2,6,6-tetramethylpiperidin-4-yl)amino)pyridazin-3-yl)phenol]: under setting [1], the EC50 came to 99 nM and the “SMN activity Fold” value is listed as 2.92 Fold.

Turning to `OCC1CN(c2ccc(-c3ccc(-n4cccn4)cc3O)nn2)CCN1` (stereo not shown) [Example 18-10, 2-[6-(3-hydroxy-methyl-piperazin-1-yl)-pyridazin-3-yl]-5-pyrazol-1-yl-phenol], under setting [1], the EC50 is 386 nM and the “SMN activity Fold” value stood at 2.55 Fold.

On to `CN(c1ccc(-c2ccc3cccnc3c2)nn1)C1CC(C)(C)NC(C)(C)C1` [Example 1-12, N-methyl-6-(quinolin-7-yl)-N-(2,2,6,6-tetramethyl-piperidin-4-yl)pyridazin-3-amine], for which, under setting [1], the EC50 worked out at 367 nM and the “SMN activity Fold” value was found to be 2.54 Fold.

For the compound `CN1CC[C@@H]2CN(c3ccc(-c4ccc(-c5ccn(C)c(=O)c5)cc4O)nn3)C[C@@H]21` [Example 43-5, 4-(3-hydroxy-4-(6-((3aR,6aR)-1-methylhexahydropyrrolo[3,4-b]pyrrol-5(1H)-yl)pyridazin-3-yl)phenyl)-1-methylpyridin-2(1H)-one], under setting [1], the EC50 was 159 nM and the “SMN activity Fold” value is listed as 2.29 Fold.

For `CN(c1ccc(-c2cc(C(F)(F)F)ccc2O)nn1)C1CC(C)(C)NC(C)(C)C1` [Example 3-7, 2-{6-[methyl-(2,2,6,6-tetramethyl-piperidin-4-yl)-amino]-pyridazin-3-yl}-4-trifluoromethyl-phenol], under setting [2], the response was half-maximal at 4530 nM (EC50) and the “SMN activity Fold” value stood at 2.67 Fold.
